Data as given in ChEMBL document CHEMBL1135213, “New indene-derivatives with anti-proliferative properties” (Bioorg Med Chem Lett, 2002).
Activity calls are given as the source filed them. No cut-off for these calls is given here.

What was measured:
[1] = Inhibition of p21ras protein and Raf kinase in vitro using recombinant proteins; set-up: unit not given here
[2] = molecular target: T1, Cyclooxygenase (Homo sapiens) (UniProt P35354+P23219); conditions: Ovis aries
[3] = system: SW480; assay: Anti-proliferative activity was evaluated by its ability to inhibit proliferation of SW480 cells; assay type: functional, cell-based, Homo sapiens
[4] = system: NIH3T3; assay: Anti-proliferative activity was evaluated by its ability to inhibit proliferation of murine NIH3T3 fibroblasts; assay type: functional, cell-based, Mus musculus
[5] = system: REF; assay: Anti-proliferative activity was evaluated by its ability to inhibit proliferation of rat embryonic fibroblasts (REF); assay type: functional, cell-based
[6] = system: MDCK; assay: Anti-proliferative activity was evaluated by its ability to inhibit proliferation of MDCK cells; assay type: functional, cell-based, Canis lupus familiaris
[7] = system: MDCK; assay: Anti-proliferative activity was evaluated by its ability to inhibit proliferation of MDCK-f3 (Madin-Darby canine kidney f3) cell line; assay type: functional, cell-based, Canis lupus familiaris
[8] = Inhibition of p21ras protein and Raf kinase in vitro using recombinant proteins (inactive)
[9] = molecular target: T1, Cyclooxygenase (Homo sapiens); assay: Half-maximal inhibition of the COX activity was measured by the direct analysis of the consumed O2 using isolated sheep seminal vesicles; na means Not active; assay type: functional; conditions: Ovis aries; target entry is the homologue from another species
[10] = system: REF; assay: Anti-proliferative activity was evaluated by its ability to inhibit proliferation of rat embryonic fibroblasts (REF); na means Not active; assay type: functional, cell-based
[11] = system: NIH3T3; assay: Anti-proliferative activity was evaluated by its ability to inhibit proliferation of murine NIH3T3 fibroblasts; na means Not active; assay type: functional, cell-based, Mus musculus
[12] = system: MDCK; assay: Anti-proliferative activity was evaluated by its ability to inhibit proliferation of MDCK cells; na means Not active; assay type: functional, cell-based, Canis lupus familiaris
[13] = system: MDCK; assay: Anti-proliferative activity was evaluated by its ability to inhibit proliferation of MDCK-f3 (Madin-Darby canine kidney f3) cell line; na means Not active; assay type: functional, cell-based, Canis lupus familiaris
[14] = system: SW480; assay: Anti-proliferative activity was evaluated by its ability to inhibit proliferation of SW480 cells; na means Not active; assay type: functional, cell-based, Homo sapiens

Row | SMILES | Inhibitory activity [1] | Inhibitory activity [2] | IC50 ([3]; Homo sapiens, SW480) | IC50 ([4]; Mus musculus, NIH3T3) | IC50 ([5]; Rattus norvegicus, REF) | IC50 ([6]; Canis lupus familiaris, MDCK) | IC50 ([7]; Canis lupus familiaris, MDCK) | IC50 ([3]; sw480) | IC50 ([6]; mdck) | also measured
1 | CC1=C(CC(=O)O)c2cc(F)ccc2C1=Cc1ccc(CO)o1 [listing 1 of 3 here] | 45 | 570 | – | – | – | – | – | – | – | –
2 | CC1=C(CC(=O)O)c2cc(F)ccc2C1=Cc1ccoc1 | 30 | 0.24 | 400 µM | 170 µM | 30 µM | 300 µM | 50 µM | – | – | –
3 | CC1=C(CC(=O)O)c2cc(F)ccc2C1=Cc1ccc([S+](C)[O-])cc1 (stereo unspecified) [SULINDAC] | – | – | 800 µM | 200 µM | 100 µM | 300 µM | 320 µM | – | – | Inhibitory activity [8]: inactive; Inhibitory activity [9]: inactive
4 | COc1cccc(C=C2C(C)=C(CC(=O)O)c3cc(F)ccc32)c1 | – | – | 360 µM | 520 µM | 200 µM | 275 µM | 300 µM | – | – | –
5 | CC1=C(CC(=O)O)c2cc(F)ccc2C1=Cc1ccc(C)o1 [listing 1 of 2 here] | – | – | – | – | – | – | – | 80 µM | 60 µM | IC50 ([4]; nih3t3): 60 µM; IC50 ([5]; ref): 10 µM; IC50 ([7]; mdck): 60 µM
6 | CC1=C(CC(=O)O)c2cc(F)ccc2C1=Cc1ccc(S(=O)(=O)O)o1 | – | – | – | – | – | – | – | – | – | IC50 [10]: Not Active; IC50 [11]: Not Active; IC50 [12]: Not Active; IC50 [13]: Not Active; IC50 [14]: Not Active
7 | CC1=C(CC(=O)O)c2cc(F)ccc2C1=Cc1cccs1 | – | 0.03 | 320 µM | 400 µM | 100 µM | 470 µM | 80 µM | – | – | Inhibitory activity [8]: inactive
8 | COc1ccccc1C=C1C(C)=C(CC(=O)O)c2cc(F)ccc21 | – | – | 850 µM | 500 µM | 200 µM | – | 360 µM | – | – | –
9 | CC1=C(CC(=O)O)c2cc(F)ccc2C1=Cc1ccc(CO)o1 [listing 2 of 3 here] | – | – | – | 450 µM | 90 µM | – | 130 µM | 310 µM | 250 µM | –
10 | COc1ccc(C=C2C(C)=C(CC(=O)O)c3cc(F)ccc32)cc1 | 10 | 1.6 | – | 480 µM | 500 µM | 460 µM | 310 µM | – | – | IC50 [14]: Not Active
11 | CSc1ccc(/C=C2/C(C)=C(CC(=O)O)c3cc(F)ccc32)cc1 [SULINDAC SULFIDE] | 210 | 2.6 | 200 µM | 350 µM | 200 µM | 180 µM | 200 µM | – | – | –
12 | CC1=C(CC(=O)O)c2cc(F)ccc2C1=Cc1ccc(CO)o1 [listing 3 of 3 here] | – | – | – | – | – | – | – | 70 µM | 50 µM | IC50 ([4]; nih3t3): 490 µM; IC50 ([5]; ref): 80 µM; IC50 ([7]; mdck): 120 µM
13 | CC1=C(CC(=O)O)c2cc(F)ccc2C1=Cc1ccc(C)o1 [listing 2 of 2 here] | – | – | – | 100 µM | 20 µM | – | – | 380 µM | 250 µM | IC50 ([7]; mdck): 310 µM
